Laboratory results from publication PMC11855478, “Bicyclic N,S-Acetals Containing Fused Cysteine-Amide System as New Heterocyclic Class Targeting Human Farnesyltransferase (FTase-h)” (International Journal of Molecular Sciences, 2025).

Legend:
[1] = tested on: A549/ATCC (Non-Small Cell Lung Cancer); assay: NCI one dose, A549/ATCC; type: cell-based, human; details: 1.00E-5 Molar one dose
How it was run: (§1)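 Cells of the National Cancer Institute 60-line human cancer screen are treated with test compound for 48 h, then growth is quantified by SRB assay.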

A498 (Renal Cancer) = assay: NCI one dose, A498; type: cell-based, human; details: A498, 1.00E-5 Molar one dose
How it was run: as §1

SF-539 (CNS Cancer) = assay: NCI one dose, SF-539; type: cell-based, human; details: SF-539, 1.00E-5 Molar one dose
How it was run: as §1

HCT-116 (Colon Cancer) = assay: NCI one dose, HCT-116; type: cell-based, human; details: HCT-116, 1.00E-5 Molar one dose
How it was run: as §1

SNB-19 (CNS Cancer) = assay: NCI one dose, SNB-19; type: cell-based, human; details: SNB-19, 1.00E-5 Molar one dose
How it was run: as §1

CCRF-CEM (Leukemia) = assay: NCI one dose, CCRF-CEM; type: cell-based, human; details: 1.00E-5 Molar one dose
How it was run: as §1

[2] = tested on: HOP-92 (Non-Small Cell Lung Cancer); assay: NCI one dose, HOP-92; type: cell-based, human; details: HOP-92, 1.00E-5 Molar one dose
How it was run: as §1

M14 (Melanoma) = assay: NCI one dose, M14; type: cell-based, human; details: M14, 1.00E-5 Molar one dose
How it was run: as §1

OVCAR-4 (Ovarian Cancer) = assay: NCI one dose, OVCAR-4; type: cell-based, human; details: OVCAR-4, 1.00E-5 Molar one dose
How it was run: as §1

[3] = tested on: EKVX (Non-Small Cell Lung Cancer); assay: NCI one dose, EKVX; type: cell-based, human; details: 1.00E-5 Molar one dose
How it was run: as §1

SK-MEL-5 (Melanoma) = assay: NCI one dose, SK-MEL-5; type: cell-based, human; details: SK-MEL-5, 1.00E-5 Molar one dose
How it was run: as §1

SK-MEL-2 (Melanoma) = assay: NCI one dose, SK-MEL-2; type: cell-based, human; details: SK-MEL-2, 1.00E-5 Molar one dose
How it was run: as §1

[4] = tested on: NCI-H322M (Non-Small Cell Lung Cancer); assay: NCI one dose, NCI-H322M; type: cell-based, human; details: 1.00E-5 Molar one dose
How it was run: as §1

U251 (CNS Cancer) = assay: NCI one dose, U251; type: cell-based, human; details: U251, 1.00E-5 Molar one dose
How it was run: as §1

HCT-15 (Colon Cancer) = assay: NCI one dose, HCT-15; type: cell-based, human; details: HCT-15, 1.00E-5 Molar one dose
How it was run: as §1

HT29 (Colon Cancer) = assay: NCI one dose, HT29; type: cell-based, human; details: HT29, 1.00E-5 Molar one dose
How it was run: as §1

COLO 205 (Colon Cancer) = assay: NCI one dose, COLO 205; type: cell-based, human; details: COLO 205, 1.00E-5 Molar one dose
Procedure: (§2) 3.4. Cell Proliferation Assay
(§3) Selected compounds were tested on a panel of 60 human cancer cell lines at the National Cancer Institute (NCI), Germantown, MD, USA. The cytotoxicity studies were conducted using a 48 h exposure protocol using the sulfo-rhodamine B assay.

[5] = tested on: NCI-H23 (Non-Small Cell Lung Cancer); assay: NCI one dose, NCI-H23; type: cell-based, human; details: NCI-H23, 1.00E-5 Molar one dose
How it was run: as §1

ACHN (Renal Cancer) = assay: NCI one dose, ACHN; type: cell-based, human; details: 1.00E-5 Molar one dose
How it was run: (§4)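 Selected compounds went through the NCI sixty-line screen; a 48 h treatment preceded sulforhodamine B quantification.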

MALME-3M (Melanoma) = assay: NCI one dose, MALME-3M; type: cell-based, human; details: 1.00E-5 Molar one dose
How it was run: as §4

[6] = tested on: MDA-MB-231/ATCC (Breast Cancer); assay: NCI one dose, MDA-MB-231/ATCC; type: cell-based, human; details: 1.00E-5 Molar one dose
How it was run: as §1

UACC-62 (Melanoma) = assay: NCI one dose, UACC-62; type: cell-based, human; details: UACC-62, 1.00E-5 Molar one dose
How it was run: as §1

[7] = tested on: panel of 60 human cancer cell lines; assay: NCI 60 cell panel one dose screen (whole panel); type: cell-based; parameters: Delta (One Dose Mean Graph): unit not given here; details: 1.00E-5 Molar one dose; for Range (One Dose Mean Graph): in % (unit assumed); for Mean Growth Percent: mean over tested cell lines
How it was run: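 Sulforhodamine B read-out after 48 h treatment at one high dose (10 µM), run on the full 60-line NCI human tumour cell panel.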

HS 578T (Breast Cancer) = assay: NCI one dose, HS 578T; type: cell-based, human; details: 1.00E-5 Molar one dose
How it was run: as §1

RXF 393 (Renal Cancer) = assay: NCI one dose, RXF 393; type: cell-based, human; details: RXF 393, 1.00E-5 Molar one dose
How it was run: as §1

SF-295 (CNS Cancer) = assay: NCI one dose, SF-295; type: cell-based, human; details: SF-295, 1.00E-5 Molar one dose
How it was run: as §4

MOLT-4 (Leukemia) = assay: NCI one dose, MOLT-4; type: cell-based, human; details: MOLT-4, 1.00E-5 Molar one dose
How it was run: as §1

SR (Leukemia) = assay: NCI one dose, SR; type: cell-based, human; details: 1.00E-5 Molar one dose
Procedure: as §2, §3

IGROV1 (Ovarian Cancer) = assay: NCI one dose, IGROV1; type: cell-based, human; details: IGROV1, 1.00E-5 Molar one dose
How it was run: as §1

786-0 (Renal Cancer) = assay: NCI one dose, 786-0; type: cell-based, human; details: 786-0, 1.00E-5 Molar one dose
How it was run: as §1

K-562 leukaemia cells = assay: NCI one dose, K-562; type: cell-based, human; details: K-562, 1.00E-5 Molar one dose
How it was run: as §1

OVCAR-5 (Ovarian Cancer) = assay: NCI one dose, OVCAR-5; type: cell-based, human; details: OVCAR-5, 1.00E-5 Molar one dose
How it was run: as §1

OVCAR-8 (Ovarian Cancer) = assay: NCI one dose, OVCAR-8; type: cell-based, human; details: OVCAR-8, 1.00E-5 Molar one dose
How it was run: as §4

In the case of `C[C@@]12SC[C@@H](C(=O)NCc3ccccc3)N1C(=O)c1ccccc12` [4bA], the “Growth Percent” value [1] is reported as 78.86%, the “Growth Percent” value (A498 (Renal Cancer)) is reported as 91.48% and the “Growth Percent” value (SF-539 (CNS Cancer)) is reported as 95.44%. For the same compound, the “Growth Percent” value (HCT-116 (Colon Cancer)) was 97.31%, the “Growth Percent” value (SNB-19 (CNS Cancer)) was 100.20% and the “Growth Percent” value (CCRF-CEM (Leukemia)) was 95.36%. The “Growth Percent” value [2] was 83.94%, the “Growth Percent” value (M14 (Melanoma)) was 101.98% and the “Growth Percent” value (OVCAR-4 (Ovarian Cancer)) was 102.82%. For the same compound, the “Growth Percent” value [3] was 104.65%, the “Growth Percent” value (SK-MEL-5 (Melanoma)) was 102.19% and the “Growth Percent” value (SK-MEL-2 (Melanoma)) was 92.83%. The “Growth Percent” value [4] was 96.63%, the “Growth Percent” value (U251 (CNS Cancer)) was 92.28% and the “Growth Percent” value (HCT-15 (Colon Cancer)) was 98.84%. The “Growth Percent” value (HT29 (Colon Cancer)) was 80.95%, the “Growth Percent” value (COLO 205 (Colon Cancer)) was 108.00% and the “Growth Percent” value [5] was 98.21%. The “Growth Percent” value (ACHN (Renal Cancer)) was 102.90%, the “Growth Percent” value (MALME-3M (Melanoma)) was 107.28% and the “Growth Percent” value [6] was 99.53%. The “Growth Percent” value (UACC-62 (Melanoma)) was 97.03%, the “Delta (One Dose Mean Graph)” value [7] was 22.99 and the “Range (One Dose Mean Graph)” value [7] was 45.00. For the same compound, the “Mean Growth Percent” value [7] was 97.89%, the “Growth Percent” value (HS 578T (Breast Cancer)) was 100.47% and the “Growth Percent” value (RXF 393 (Renal Cancer)) was 108.00%. The “Growth Percent” value (SF-295 (CNS Cancer)) was 98.04%, the “Growth Percent” value (MOLT-4 (Leukemia)) was 93.49% and the “Growth Percent” value (SR (Leukemia)) was 78.43%. For the same compound, the “Growth Percent” value (IGROV1 (Ovarian Cancer)) was 105.63%, the “Growth Percent” value (786-0 (Renal Cancer)) was 101.14% and the “Growth Percent” value (K-562 leukaemia cells) was 91.39%. The “Growth Percent” value (OVCAR-5 (Ovarian Cancer)) was 97.87% and the “Growth Percent” value (OVCAR-8 (Ovarian Cancer)) was 90.77%.
For `COc1ccccc1CNC(=O)[C@@H]1CS[C@@]2(C)c3ccccc3C(=O)N12` [4bG], the “Growth Percent” value [1] was 78.33%, the “Growth Percent” value (A498 (Renal Cancer)) was 93.00% and the “Growth Percent” value (SF-539 (CNS Cancer)) was 109.96%. The “Growth Percent” value (HCT-116 (Colon Cancer)) was 99.72%, the “Growth Percent” value (SNB-19 (CNS Cancer)) was 102.87% and the “Growth Percent” value (CCRF-CEM (Leukemia)) was 98.16%. For the same compound, the “Growth Percent” value [2] was 98.11%, the “Growth Percent” value (M14 (Melanoma)) was 100.11% and the “Growth Percent” value (OVCAR-4 (Ovarian Cancer)) was 95.75%. The “Growth Percent” value [3] was 102.57%, the “Growth Percent” value (SK-MEL-5 (Melanoma)) was 98.16% and the “Growth Percent” value (SK-MEL-2 (Melanoma)) was 98.59%. For the same compound, the “Growth Percent” value [4] was 100.27%, the “Growth Percent” value (U251 (CNS Cancer)) was 94.53% and the “Growth Percent” value (HCT-15 (Colon Cancer)) was 98.16%. For the same compound, the “Growth Percent” value (HT29 (Colon Cancer)) was 79.32%, the “Growth Percent” value (COLO 205 (Colon Cancer)) was 105.75% and the “Growth Percent” value [5] was 103.28%. The “Growth Percent” value (ACHN (Renal Cancer)) was 109.61%, the “Growth Percent” value (MALME-3M (Melanoma)) was 100.10% and the “Growth Percent” value [6] was 98.66%. For the same compound, the “Growth Percent” value (UACC-62 (Melanoma)) was 95.39%, the “Delta (One Dose Mean Graph)” value [7] was 28.52 and the “Range (One Dose Mean Graph)” value [7] was 40.41. For the same compound, the “Mean Growth Percent” value [7] was 98.55%, the “Growth Percent” value (HS 578T (Breast Cancer)) was 95.65% and the “Growth Percent” value (RXF 393 (Renal Cancer)) was 105.28%. For the same compound, the “Growth Percent” value (SF-295 (CNS Cancer)) was 99.22%, the “Growth Percent” value (MOLT-4 (Leukemia)) was 96.78% and the “Growth Percent” value (SR (Leukemia)) was 82.72%. The “Growth Percent” value (IGROV1 (Ovarian Cancer)) was 107.94%, the “Growth Percent” value (786-0 (Renal Cancer)) was 104.93% and the “Growth Percent” value (K-562 leukaemia cells) was 85.09%. For the same compound, the “Growth Percent” value (OVCAR-5 (Ovarian Cancer)) was 107.74% and the “Growth Percent” value (OVCAR-8 (Ovarian Cancer)) was 95.21%.
For `C[C@@]12SC[C@@H](C(=O)NCc3ccccc3Br)N1C(=O)c1ccccc12` [4bB], the “Growth Percent” value [1] was 77.15%, the “Growth Percent” value (A498 (Renal Cancer)) was 75.85% and the “Growth Percent” value (SF-539 (CNS Cancer)) was 90.78%. The “Growth Percent” value (HCT-116 (Colon Cancer)) was 104.70%, the “Growth Percent” value (SNB-19 (CNS Cancer)) was 100.80% and the “Growth Percent” value (CCRF-CEM (Leukemia)) was 88.50%. For the same compound, the “Growth Percent” value [2] was 88.23%, the “Growth Percent” value (M14 (Melanoma)) was 107.44% and the “Growth Percent” value (OVCAR-4 (Ovarian Cancer)) was 80.04%. For the same compound, the “Growth Percent” value [3] was 106.14%, the “Growth Percent” value (SK-MEL-5 (Melanoma)) was 90.98% and the “Growth Percent” value (SK-MEL-2 (Melanoma)) was 85.75%. The “Growth Percent” value [4] was 99.70%, the “Growth Percent” value (U251 (CNS Cancer)) was 91.25% and the “Growth Percent” value (HCT-15 (Colon Cancer)) was 95.65%. The “Growth Percent” value (HT29 (Colon Cancer)) was 83.02%, the “Growth Percent” value (COLO 205 (Colon Cancer)) was 111.70% and the “Growth Percent” value [5] was 91.89%. The “Growth Percent” value (ACHN (Renal Cancer)) was 106.88%, the “Growth Percent” value (MALME-3M (Melanoma)) was 97.54% and the “Growth Percent” value [6] was 97.39%. For the same compound, the “Growth Percent” value (UACC-62 (Melanoma)) was 82.12%, the “Delta (One Dose Mean Graph)” value [7] was 17.49 and the “Range (One Dose Mean Graph)” value [7] was 36.16. For the same compound, the “Mean Growth Percent” value [7] was 93.03%, the “Growth Percent” value (HS 578T (Breast Cancer)) was 91.10% and the “Growth Percent” value (RXF 393 (Renal Cancer)) was 96.88%. For the same compound, the “Growth Percent” value (SF-295 (CNS Cancer)) was 92.26%, the “Growth Percent” value (MOLT-4 (Leukemia)) was 82.96% and the “Growth Percent” value (SR (Leukemia)) was 80.60%. For the same compound, the “Growth Percent” value (IGROV1 (Ovarian Cancer)) was 97.21%, the “Growth Percent” value (786-0 (Renal Cancer)) was 101.65% and the “Growth Percent” value (K-562 leukaemia cells) was 80.28%. The “Growth Percent” value (OVCAR-5 (Ovarian Cancer)) was 93.99% and the “Growth Percent” value (OVCAR-8 (Ovarian Cancer)) was 92.33%.
